This is an account of results in ChEMBL document CHEMBL1132073, “Synthesis of novel 4'-C-methyl-pyrimidine nucleosides and their biological activities” (Bioorg Med Chem Lett, 1999).

One assay has as its system CCRF-HSB-2. The assay is described as follows: Compound was evaluated for the cytotoxicity against human T-cell leukemia, CCRF-HSB-2 by using MTT assay. It is filed as functional, cell-based. A general note: Tetrazolium dyes change colour on reduction, which living cells bring about.
In another assay the test system is Human alphaherpesvirus 1. Put plainly: Compound was evaluated for the antiviral activity against Herpes simplex virus type 1 (HSV-1) VR-3 strain by using plaque reduction assay. It is filed as functional. Particulars: read-out: ED50 (the source's name). (Plaques are areas of infected cells; plaque reduction assays count them against a control.)
The test system of another assay is Human alphaherpesvirus 3. The assay is described as follows: Compound was evaluated for the antiviral activity against Varicella-Zoster virus (VZV) Oka strain by using plaque reduction assay. It is filed as functional. The note with it: read-out: ED50 (the source's name).
The next assay has as its system Human alphaherpesvirus 2. The assay is described as follows: Compound was evaluated for the antiviral activity against Herpes simplex virus type 2 (HSV-2) MS strain by using plaque reduction assay. The note with it: read-out: ED50 (the source's name). It is filed as functional.

Each structure is given as a SMILES string. In brackets after ≈: the same amount, converted by molar mass. Bounds are passed on as bounds.

In the assay with CCRF-HSB-2, `C[C@@]1(CO)O[C@H](n2ccc(N)nc2=O)C[C@H]1O` came in with an IC50 of 0.12 µg/mL (≈ 0.497 µM). Besides, the results for the EC50 with Human alphaherpesvirus 1, in the assay with Human alphaherpesvirus 3 and in the assay on Human alphaherpesvirus 2 were 0.071 µg/mL (≈ 0.294 µM), 0.094 µg/mL (≈ 0.39 µM) and 0.27 µg/mL (≈ 1.12 µM), respectively.
Taken in the same sequence, the figures for `O=c1[nH]c(=O)n([C@@H]2O[C@H](CO)[C@@H](O)[C@H]2O)cc1/C=C/Br` were greater than 100 µg/mL, 0.048 µg/mL (≈ 0.137 µM), 0.00083 µg/mL (≈ 0.00238 µM) and 62 µg/mL (≈ 178 µM).
On the same counts, the results for `C[C@]1(CO)OC(n2cc(/C=C/Br)c(=O)[nH]c2=O)[C@H](O)[C@@H]1O` (stereo not given in full) are greater than 100 µg/mL, 24.4 µg/mL (≈ 67.2 µM), 0.18 µg/mL (≈ 0.496 µM) and 63.5 µg/mL (≈ 175 µM).
In turn, `C[C@]1(CO)O[C@@H](n2cc(/C=C/Br)c(=O)[nH]c2=O)CC1O` (single isomer, unassigned) showed an IC50 in the assay with CCRF-HSB-2 of 0.45 µg/mL (≈ 1.3 µM). Besides, the values for the EC50 in the assay on Human alphaherpesvirus 1, in the assay on Human alphaherpesvirus 3 and in the assay with Human alphaherpesvirus 2 were 0.0053 µg/mL (≈ 0.0153 µM), 0.00077 µg/mL (≈ 0.00222 µM) and 0.26 µg/mL (≈ 0.749 µM), respectively.
Taken in the same sequence, the figures for `O=c1[nH]c(=O)n([C@H]2C[C@H](O)[C@@H](CO)O2)cc1/C=C/Br` [BRIVUDINE] were greater than 100 µg/mL, 0.052 µg/mL (≈ 0.156 µM), 0.013 µg/mL (≈ 0.039 µM) and greater than 100 µg/mL.

The term IC50 denotes the concentration at which inhibition is half-maximal. A higher IC50 goes with a need for much substance.
